According to publication PMC6073332 (2018):

Tests used:
[1] = system: single strand II (complement of I) (DNA, single strand) GAGAAGACAAGAGAG; assay: HPLC-ESI-MS; conditions: 50 mM TEAA pH 7, 310 K, 24 h; Ru/II 1.0 or 3.0; covalent
[2] = system: single strand I (-T7G8T9-) (DNA, single strand) CTCTCTTGTCTTCTC; assay: HPLC-UV peak areas, two-step stoichiometric fit; conditions: none listed (50 mM triethylammonium acetate buffer only); 50 mM TEAA pH 7, 310 K, 24 h; covalent; site 1 of 2 (G8)
[3] = system: duplex III (= I + II) (DNA, duplex) CTCTCTTGTCTTCTC/GAGAAGACAAGAGAG; assay: CD; conditions: Na+ 100 mM (NaClO4) in incubation stock, 50 mM TEAA pH 7, 310 K, 24 h, diluted to 5 μM duplex, covalent
[4] = system: single strand IX (-A7G8A9-) (DNA, single strand) CTCTCTAGACTTCTC; assay: HPLC-UV peak areas, two-step stoichiometric fit; conditions: none listed (50 mM triethylammonium acetate buffer only); 50 mM TEAA pH 7, 310 K, 24 h; covalent; site 1 of 2 (G8)
[5] = system: single strand VII (-C7G8C9-) (DNA, single strand) CTCTCTCGCCTTCTC; assay: HPLC-UV peak areas, two-step stoichiometric fit; conditions: none listed (50 mM triethylammonium acetate buffer only); 50 mM TEAA pH 7, 310 K, 24 h; covalent; site 1 of 2 (G8)
[6] = system: duplex III (= I + II) (DNA, duplex) CTCTCTTGTCTTCTC/GAGAAGACAAGAGAG; assay: HPLC-ESI-MS (denaturing); conditions: Na+ 100 mM (NaClO4); 50 mM TEAA pH 7, 310 K, 48 h; Ru/III 1.0 or 6.0; covalent
[7] = system: single strand IV (-T7G8A9-) (DNA, single strand) CTCTCTTGACTTCTC; assay: HPLC-UV peak areas, two-step stoichiometric fit; conditions: none listed (50 mM triethylammonium acetate buffer only); 50 mM TEAA pH 7, 310 K, 24 h; covalent; site 1 of 2 (G8)
[8] = system: single strand VIII (-A7G8T9-) (DNA, single strand) CTCTCTAGTCTTCTC; assay: HPLC-UV peak areas, two-step stoichiometric fit; conditions: none listed (50 mM triethylammonium acetate buffer only); 50 mM TEAA pH 7, 310 K, 24 h; covalent; site 1 of 2 (G8)
[9] = system: single strand V (-C7G8A9-) (DNA, single strand) CTCTCTCGACTTCTC; assay: HPLC-UV peak areas, two-step stoichiometric fit; conditions: none listed (50 mM triethylammonium acetate buffer only); 50 mM TEAA pH 7, 310 K, 24 h; covalent; site 1 of 2 (G8)
[10] = system: single strand VI (-A7G8C9-) (DNA, single strand) CTCTCTAGCCTTCTC; assay: HPLC-UV peak areas, two-step stoichiometric fit; conditions: none listed (50 mM triethylammonium acetate buffer only); 50 mM TEAA pH 7, 310 K, 24 h; covalent; site 1 of 2 (G8)

SMILES	binding [1]	K1 [2]	binding [6]	also measured
Cc1ccc(C(C)C)cc1.NCCN.[Cl-].[Ru+2]	yes	3.94 ± 0.24 × 10^4 M^−1	–	binding ([3]; Ru/III up to 6.0): yes
N.N.[Cl-].[Cl-].[Pt+2]	–	–	–	binding ([3]; Pt/III 6.0): yes
NCCN.[Cl-].[Ru+2].c1ccc(-c2ccccc2)cc1	yes	2.92 ± 0.46 × 10^4 M^−1	yes	K1 [4]: 3.61 ± 0.39 × 10^4 M^−1; K1 [5]: 4.75 ± 0.53 × 10^4 M^−1; K1 [7]: 3.99 ± 0.31 × 10^4 M^−1; K1 [8]: 5.74 ± 0.44 × 10^4 M^−1; K1 [9]: 2.81 ± 0.55 × 10^4 M^−1; K1 [10]: 3.33 ± 0.37 × 10^4 M^−1
NCCN.[Cl-].[Ru+2].c1ccc2c(c1)CCC2	yes	2.52 ± 0.13 × 10^4 M^−1	–	–
NCCN.[Cl-].[Ru+2].c1ccccc1	yes	0.79 ± 0.04 × 10^4 M^−1	yes	–
